Laboratory results reported in patent US4599352A, “Antineoplastic platinum (IV) complexes and compositions” (priority 1984, dated 1986).

What was measured:
[1] = tested on: IP-Implanted L1210/Cisplatin; assay: Comparison of isomers: long term survivors and weight differences in treating IP-implanted L1210/Cisplatin (Table 6); assay type: in vivo, mice
Text: Comparative data for the others are as follows: 27 for trans d, 27 for trans d l and 13 for cis. […] The higher the ratio the more convenient it is to prepare a formulation for intravenous administration to patients which is shown in Table 7.

IP L1210 = assay: Activity against IP-implanted L1210 leukemia sensitive to cisplatin, 60 day test (Table 4); assay type: in vivo, Female CD2Fl mice
Experimental: (§1) Biological properties of the compounds of the present invention were determined following the protocol described in Cancer Chemotherapy Reports, Vol. 3, No. 3, 1972 which report is incorporated herein by reference.
(§2) Other known mechanisms of resistance for other classes of agents, such as gene amplification or target enzyme change or amplication, also need to be explored. The experiments summarized in Table 3 were conducted at the same time against both sublines using the same drug preparations. […] These experiments were repeated in a second laboratory as documented in Table 4. However, in these experiments the animals were held for 60 rather than 30 days to evaluate whether or not long-term survivors are produced after drug treatment in a more challenging setting.
This experiment (A8-00005 3LE31) was conducted at the Southern Research Institute, Birmingham, Ala. under the supervision of Dr. Daniel Griswold. The protocols were the same as those published previously (Geran et al., Cancer Chemotherapy Reports 3: No. 2, 1972 [Attachment 11]). 10^5 cells were implanted intraperitoneally in CD2Fl male mice on Day 0. Drug treatments were given intraperitoneally as single injections at the doses indicated on Days 1, 5 and 9 after tumor implantation. The diluent was saline except for NSC-271674 where 5% sodium bicarbonate was used. All drugs were prepared fresh on the day of injection, and all were administered in solution. Median survival times for both control and drug-treated mice were determined and expressed as a percentage (% T/C). Body weights were determined on Day 5 and expressed as a weight difference (body weight of the drug-treated animals minus that of the control animals in grams) (T-C). The diluent control animals lived a median of 8.4 days and gained 1.9 grams by Day 5 in this experiment. All animals, including Day 30 survivors, were used in the calculation of median survival times. The log10 change in tumor burden refers to the net log change in viable tumor cell population at the end of therapy (Rx) as compared to the start of therapy; e.g., a […] means that there was a […] and a 3 log change means there was a 1000-fold increase in tumor burden at the end of therapy. The tumor burden at the start of therapy was about 6.1×10^5 cells in this experiment.
(§3) These experiments (23-00081 3LE31 and 23-00003 3DP3l) were conducted concurrently at the Mason Research Institute, Worcester, MA under the supervision of Dr. William Cobb. See Table 4 for experimental details. The diluent control animals bearing L1210 leukemia lived a median of 8.3 days and gained 1.6 grams by Day 5. […] Female CD2Fl mice were used for these experiments.

IP L1210/Cisplatin = assay: Activity against IP-implanted L1210/Cisplatin leukemia resistant to cisplatin, 60 day test (Table 4); assay type: in vivo, Female CD2Fl mice
Experimental: as §1
as §2, with “setting. […]” for “setting.”
as §3

[2] = tested on: SC Implanted L1210 Leukemia; assay: Activity against SC implanted L1210 leukemia following intravenous administration, once daily Days 1-5 (Table 5); assay type: in vivo, CD2Fl male mice; details: IV once daily Days 1-5
Experimental: as §1
In another type of experiment the same platinum complexes were directly compared against the SC implanted L1210 following intravenous administration (Table 5).
This experiment (A8-00004 3LE32) was conducted at the Southern Research Institute, Birmingham, Ala. under the supervision of Dr. Daniel Griswold. The protocols were the same as those published previously (Attachment 11). 10^6 cells were implanted subcutaneously in CD2Fl male mice on Day 0. Drug treatments were given intravenously once daily at the doses indicated on Days 1-5 after tumor implantation. The dosage range tested included the highest and lowest doses indicated in the Table as well as intermediate values which were determined by multiplying each dose in turn by 0.5 starting with the highest dose. The diluent was saline except for NSC-271674 for which 5% sodium bicarbonate was used. All drugs were prepared fresh on the day of injection, and all were administered in solution. Median survival times for both control and drug-treated mice were determined and expressed as a percentage (% T/C). Body weights were determined on Day 5 and expressed as a weight difference (body weight of the drug-treated animals minus that of the control animals in grams) (T-C).

| SMILES | Total Grams of Weight Difference [1] [Grams] | Total number of long-term survivors [1] | 60 Day Survivors/Total (IP L1210; 1 mg/kg/dose) | Body Weight Difference (IP L1210; 1 mg/kg/dose) [Grams] | Median % T/C (IP L1210; 1 mg/kg/dose) [%] | 60 Day Survivors/Total (IP L1210; 2 mg/kg/dose) | Body Weight Difference (IP L1210; 2 mg/kg/dose) [Grams] | Median % T/C (IP L1210; 2 mg/kg/dose) [%] | 60 Day Survivors/Total (IP L1210; 4 mg/kg/dose) | Body Weight Difference (IP L1210; 4 mg/kg/dose) [Grams] | Median % T/C (IP L1210; 4 mg/kg/dose) [%] | 60 Day Survivors/Total (IP L1210; 8 mg/kg/dose) | Body Weight Difference (IP L1210; 8 mg/kg/dose) [Grams] | Median % T/C (IP L1210; 8 mg/kg/dose) [%] | 60 Day Survivors/Total (IP L1210; 16 mg/kg/dose) | Body Weight Difference (IP L1210; 16 mg/kg/dose) [Grams] | Median % T/C (IP L1210; 16 mg/kg/dose) | 60 Day Survivors/Total (IP L1210/Cisplatin; 1 mg/kg/dose) | Body Weight Difference (IP L1210/Cisplatin; 1 mg/kg/dose) [Grams] | Median % T/C (IP L1210/Cisplatin; 1 mg/kg/dose) [%] | further results |
| --- | --- | --- | --- | --- | --- | --- | --- | --- | --- | --- | --- | --- | --- | --- | --- | --- | --- | --- | --- | --- | --- |
| [Cl][Pt-2]1([Cl])([Cl])([Cl])[NH2+][C@@H]2CCCC[C@H]2[NH2+]1 [trans (l), (1R,2R)-Tetrachloro-trans-1,2-cyclohexanediammine platinum (IV)] | -6.0 | 17 | 0/10 | -0.4 | 146 | 2/10 | -0.8 | 216 | 0/10 | -2.2 | 208 | 1/10 | -3.7 | 228 | 0/10 | -5.9 | Toxic | 0/10 | -1.1 | 132 | 60 Day Survivors/Total (IP L1210/Cisplatin; 2 mg/kg/dose): 4/10; Body Weight Difference (IP L1210/Cisplatin; 2 mg/kg/dose): -0.8 Grams; Median % T/C (IP L1210/Cisplatin; 2 mg/kg/dose): 239%; 60 Day Survivors/Total (IP L1210/Cisplatin; 4 mg/kg/dose): 3/8; Body Weight Difference (IP L1210/Cisplatin; 4 mg/kg/dose): -1.7 Grams; Median % T/C (IP L1210/Cisplatin; 4 mg/kg/dose): 376%; 60 Day Survivors/Total (IP L1210/Cisplatin; 8 mg/kg/dose): 0/10; Body Weight Difference (IP L1210/Cisplatin; 8 mg/kg/dose): -3.5 Grams; Median % T/C (IP L1210/Cisplatin; 8 mg/kg/dose): 133%; 60 Day Survivors/Total (IP L1210/Cisplatin; 16 mg/kg/dose): 0/10; Body Weight Difference (IP L1210/Cisplatin; 16 mg/kg/dose): -7.3 Grams; Median % T/C (IP L1210/Cisplatin; 16 mg/kg/dose): Toxic; Optimal Dose [2]: 2.5 mg/kg/inj |
| [Cl][Pt]1([Cl])([Cl])([Cl])[NH]C2CCCCC2[NH]1 (stereo not drawn) [trans (d, l), (d,l)-Tetrachloro-trans-1,2-cyclohexanediamine platinum (IV)] | -10.0 | 12 | 0/10 | -0.8 | 144 | 0/10 | -1.2 | 180 | 0/10 | -1.5 | 274 | 3/10 | -3.2 | 178 | 0/10 | -5.9 | 89% | 0/10 | -0.6 | 129 | 60 Day Survivors/Total (IP L1210/Cisplatin; 2 mg/kg/dose): 1/10; Body Weight Difference (IP L1210/Cisplatin; 2 mg/kg/dose): -0.8 Grams; Median % T/C (IP L1210/Cisplatin; 2 mg/kg/dose): 139%; 60 Day Survivors/Total (IP L1210/Cisplatin; 4 mg/kg/dose): 4/10; Body Weight Difference (IP L1210/Cisplatin; 4 mg/kg/dose): -1.2 Grams; Median % T/C (IP L1210/Cisplatin; 4 mg/kg/dose): 451%; 60 Day Survivors/Total (IP L1210/Cisplatin; 8 mg/kg/dose): 0/10; Body Weight Difference (IP L1210/Cisplatin; 8 mg/kg/dose): -4.0 Grams; Median % T/C (IP L1210/Cisplatin; 8 mg/kg/dose): 236%; 60 Day Survivors/Total (IP L1210/Cisplatin; 16 mg/kg/dose): 0/10; Body Weight Difference (IP L1210/Cisplatin; 16 mg/kg/dose): -6.3 Grams; Median % T/C (IP L1210/Cisplatin; 16 mg/kg/dose): Toxic; Optimal Dose [2]: 2.5 mg/kg/inj |
